Test results taken from patent US20190337989A1, “IMMUNITY INDUCER” (priority 2016, published 2019).
Values joined by “and” are separate entries in the source; they are usually repeats but may differ in a detail not shown here. Equal entries are not always repeated. “Also recorded” adds a separate entry of the source. Where two headings read alike, the source gives them in different places.

What was measured:
avian influenza virus [1] = tested on: avian influenza virus; parameters: species or system mice; details: mouse, in vivo, iv
avian influenza virus [2] = tested on: avian influenza virus; parameters: species or system Balb/c mice; details: mouse, in vivo, ip

Core-[PEG-STQKAID]4 [avian influenza MAP4]
induction of IgG and IgM antibodies against the avian influenza virus (avian influenza virus [1]): found to be induced; also recorded: enabled induction of IgG and IgM antibodies
IgG concentration (avian influenza virus [2]): higher than 100 ng/ml
induction of IgG and IgM antibodies against the avian influenza virus (avian influenza virus [2]): enabled induction of IgG and IgM antibodies
mice in which IgM antibodies were induced (avian influenza virus [2]): 5 out of 5 mice and increased in all mice
mice with apparent increase in the IgG level (avian influenza virus [2]): 3 mice out of 5 mice
subclasses exhibiting increased IgG antibody levels (avian influenza virus [2]): IgG and IgG3; also recorded: IgG1 and IgG3
total level of IgG antibody converted to anti-FLAG antibody (avian influenza virus [2]): 157 ng/mL and 154 ng/mL and 106 ng/mL and 122 ng/mL and 148 ng/mL and 83 ng/mL
